Results from patent US9107909B2, “Materials and methods to enhance hematopoietic stem cells engraftment procedures” (priority 2008, dated 2015).

How the values were obtained:
Format in all cases: cell-based, mouse
[1] = system: active caspase-3 in SKL cells; assay: Active caspase-3 by FACS in SKL cells
Source text: (§1) All antibodies were purchased from BD Biosciences unless otherwise noted. For detection and sorting of murine KL and SKL cells, streptavidin conjugated with PE-Cy7 (to stain for biotinylated MACS lineage antibodies (Miltenyi Biotech, Auburn, Calif.)), c-kit-APC, Sca-1-PE or APC-Cy7, CD45. 1-PE and CD45.2-FITC were used. UCB CD34^+ cells were detected using anti-human-CD34-APC. For multilineage analysis, APC-Cy7-Mac-1, PE-Cy7-B-220 and APC-CD3 were used. EP receptors were detected with anti EP1, EP2, EP3 and EP4 rabbit IgG (Cayman Chemicals) and secondary staining with FITC-goat-anti-rabbit IgG (Southern Biotech, Birmingham, Ala.). CXCR4 expression was analyzed using streptavidin-PECy7, c-kit-APC, Sca-1-APC-Cy7, and CXCR4-PE. Apoptosis was measured with FITC-Annexin-V. For Survivin and active caspase-3 detection, cells were permeabilized and fixed using the CytoFix/CytoPerm kit (BD) and stained with anti-active-caspase-3-FITC Flow Kit (BD) or Survivin-PE (R&D Systems).
Expression of EP receptors, CXCR4 and Survivin Replicate Lin^neg cell samples from CD45.2 mice were stained for SKL and each of the EP receptors and surface receptor expression on KL and SKL cells determined by FACS. […] Replicate cells were stained for CD34 and each of the EP receptors and surface expression determined by FACS. […]

[2] = system: SKL cells; assay: In vitro cell cycle analysis
Procedure: For in vitro cell cycle analysis, Lin^neg cells were treated with either 1 microMolar dmPGE2 or vehicle for 2 hours, washed, and cultured in Stem Cell Pro Media (Stem Cell Technologies) with rmSCF (50 ng/ml) (R&D Systems, Minneapolis, Minn.), rhFlt-3 and rhTPO (100 ng/ml each) (Immunex, Seattle, Wash.). After 20 hours, cells were stained for SKL, fixed and permeabilized, and stained with 7AAD (BD Biosciences, San Jose, Calif.). The proportion of SKL cells in S+G2/M phase was determined by measuring DNA content by FACS. For in vivo cell cycle analysis, CD45.2 mice were lethally irradiated and transplanted with 5×10^6 Lin^neg cells from CD45.1 mice treated with either 1 microMolar dmPGE2 or vehicle for 2 hours. At the time of transplant, recipient mice received 1 milligram/mL BrdU (Sigma Aldrich, St. Louis, Mo.) in drinking water and 1 mg per mouse BrdU I.P. After 16 hours, recipient marrow was isolated, lineage depleted, and stained for CD45.1, SKL and BrdU. The proportion of homed (CD45.1^+) SKL cells that were BrdU^+ was determined by FACS in individual mice.
Survivin regulates HSPC entry into and progression through cell cycle. Furthermore, β-catenin, implicated in HSPC proliferation and self-renewal, lies downstream of EP receptor pathways. […] To test this hypothesis, the cell cycle status of SKL cells pulsed with dmPGE2 or vehicle in vitro was analyzed. Referring now to FIG. 6A, pulse-exposure to dmPGE2 increased DNA content in SKL cells, an indication of increased cell cycling (left panels, upper right quadrant). In 3 experiments, 60% more SKL cells were in S+G2/M phase of the cell cycle after dmPGE2 treatment compared to controls (FIG. 6A right panel).
Lineage^neg cells were treated with either vehicle or 1 microMolar dmPGE2 for 2 hours, washed and cultured in media with rmSCF, rhFlt3 and rhTpo. After 20 hours cells were stained for SKL and Hoechst-33342 and Pyronin-Y. The proportion of SKL cells in cell cycle were measured by FACS. Referring now to FIG. 12, representative flow plot showing cell cycle distribution of gated SKL cells and combined data for fold increase in cell cycle for dmPGE2-treated cells compared to vehicle control from 3 experiments, Mean±SEM, n=9 mice, each assayed individually. […]
Referring now to FIG. 8, table summarizing data collected using Lin^neg bone marrow cells treated with either 1 microMolar dmPGE2 or vehicle for 2 hours and cultured in the presence of growth factors (50 ng/ml rmSCF, 100 ng/ml each of rhFlt-3 and rhTPO) for 20 hours, were stained for SLAM SKL, Hoechst-33342 and Pyronin-Y and the proportion of SLAM SKL cells in G0, G1, S and G2/M phase of the cell cycle determined by quantitation of the DNA and the RNA content by FACS. Data are Mean±SEM for n=9 mice, each assayed individually. ^(b)Percentage of cells in G1+S+G2M; Combined data for n=9 mice. ^(*^)P<0.05 compared to vehicle control.

[3] = system: Survivin in murine SKL cells; assay: Intracellular Survivin by FACS, murine SKL cells; conditions: vs control; for increase in Survivin protein, murine SKL cells: 24 hours post-pulse
Source text: as §1
Expression of EP receptors, CXCR4 and Survivin Replicate Lin^neg cell samples from CD45.2 mice were stained for SKL and each of the EP receptors and surface receptor expression on KL and SKL cells determined by FACS. For human EP receptors, UCB was obtained from Wishard Hospital, Indianapolis, Ind. with Institutional Review Board approval. Mononuclear cells were isolated on Ficoll-Paque™ Plus (Amersham Biosciences) and CD34^+ cells positively selected with MACS microbeads (Miltenyi Biotech) (Fukuda and Pelus, 2001). Replicate cells were stained for CD34 and each of the EP receptors and surface expression determined by FACS. To evaluate CXCR4, Survivin and active caspase-3, Lin^neg cells or CD34^+ UCB were treated on ice with either 1 microMolar dmPGE2 or vehicle control for 2 hours, washed, and then cultured in RPMI-1640+10% FBS at 37° C. for 24 hours. Cells were stained for SKL (murine cells) and CXCR4, Survivin, and/or active caspase-3, as described above, and analyzed by FACS. […]

Compound	decrease in active caspase-3 ([1]; 24-72 hours post exposure)	cell cycle rate of CD150+48− (SLAM) SKL cells ([2]; in vitro, 1 microMolar 2 hours, 20 hours culture)	proportion of SKL cells actively in cell cycle ([2]; in vitro, within 24 hours post-treatment)	increase in proportion of HSPC in cell cycle / HSPC cell cycle activity ([2]; pulse exposure) [fold]	increase in Survivin protein, murine SKL cells [3] [fold]	active caspase-3 in SKL cells ([1]; 24, 48 and 72 hours post-exposure, vs control)	cell cycle rate of KL or Lin neg cells ([2]; in vitro)	more SKL cells in S+G2/M phase of the cell cycle ([2]; in vitro, 3 experiments, vs controls) [%]	Survivin mRNA ([3]; QRT-PCR)
CCCCC[C@H](O)/C=C/[C@H]1[C@H](O)CC(=O)[C@@H]1C/C=C\CCCC(=O)O [PGE2, Prostaglandin E2]	23-59%	Increases the Cell Cycle Rate	increase	~2	1.7	–	–	–	–
CCCCC(C)(C)[C@H](O)/C=C/[C@H]1[C@H](O)CC(=O)[C@@H]1C/C=C\CCCC(=O)O [dmPGE2, 16,16-dimethyl prostaglandin E2]	–	–	–	–	1.7	decreased active caspase-3	No significant effect	60	elevated Survivin mRNA
